Patent US12329788B2, “Synbiotic compositions” (Evonik Operations GmbH, priority 2018, dated 2025)
Where a SMILES comes first, the peptide text is derived from it.

Test system: Clostridium XIVa cluster
Experiment: i-screen microbiota composition by 16S rRNA V4 sequencing, Clostridium XIVa
Assay type: cell-based, human
Conditions: 24 h SIEM, amino acids 3.5 mM, dipeptides 7 mM
From the text: To determine the effect of the probiotic strains Bacillus subtilis DSM 32315, Bacillus subtilis DSM 32540, Bacillus licheniformis DSM 32314 and Bacillus amyloliquefaciens CECT 5940 on adult colonic microbiota, an intestinal screening model was used (i-screen, TNO, the Netherlands). Therefore the i-screen model was inoculated with standard human adult fecal microbiota material, which consisted of pooled fecal donations from 6 healthy adult volunteers (Caucasian, European lifestyle and nutrition). The fecal material was mixed and grown in a fed-batch fermenter for 40 hours to create a standardized microbiota as described previously. These standard adult gut microbiota sets were stored at −80° C. in 12% glycerol.
The intestinal microbiota was cultured in vitro in modified standard ileal efflux medium (SIEM), the composition of which was described by and modified as follows: 0.047 g/l pectin, 0.047 g/l xylan, 0.047 g/l arabinogalactan, 0.047 g/l amylopectin, 0.392 g/l starch, 24.0 g/l casein, 24.0 Bacto pepton, 0.4 ox-bile and 0.2 g/l cysteine. All components were supplied by Trititium Microbiology (Veldhoven, The Netherlands). The pH of the medium was adjusted to 5.8.
For the i-screen fermentations, the precultured standardized fecal inoculum was diluted 50 times in 1350 μl modified SIEM. All experiments have been carried out in triplicates. The strains Bacillus subtilis (DSM 32315), Bacillus subtilis DSM 32540, Bacillus licheniformis DSM 32314 and Bacillus amyloliquefaciens CECT 5940 were precultured separately in 50 ml LBKelly medium, for about 16 h. Incubation was done in shaking flasks at 37° C. under aerobic conditions. After incubation, bacterial density was determined by optical density measurement at 600 nm. A final stock solution of 1×10^10 cells/ml was prepared in 1 ml buffer solution (0.1 mM MES pH 6). The suspension of each strain was introduced into the i-screen to a final level of about 10^9 cells/ml, respectively
The i-screen incubation was performed under following gas conditions: 0.2% O2, 0.2% CO2, 10% H2, 89.6% N2.
DNA extraction for the sequencing of 16S rRNA coding genes was performed as described by Ladirat et al. (2013) with some minor modifications. Approximately 100 μl of the culture materials were added to the wells of a 96 well plate containing per well 300 μl of lysis buffer (Mag Mini DNA Isolation Kit, LGC ltd, UK), 500 μl zirconium beads (0.1 mm; BioSpec products, Bartlesville, OK, USA) and 500 μl of phenol saturated with Tris-HCI (pH 8.0; Carl Roth GMBH, Germany). The 96 well plate was placed in a Mini-BeadBeater-96 (BioSpec products, Bartlesville, Okla, USA) for 2 min at 2100 oscillations/min. DNA was subsequently purified using the Agowa Mag Mini DNA Isolation Kit according to the manufacturer recommendations. Extracted DNA was eluted in a final volume of 60 μl buffer.
The microbiota composition was analyzed by 16S rRNA gene amplicon sequencing of the V4 Hypervariable Region. This was Achieved Through a Series of Steps:
Subsequently, PCR amplicons of the V4 hypervariable region of the 16S rRNA gene were generated for the individual samples by amplification of […] of DNA as described by (2013), using F515/R806 primers. Primers included Illumina adapters and a unique 8-nt sample index sequence key. A mock control was included for technical quality control. The amount of amplified DNA per sample was quantified using the dsDNA 910 Reagent Kit on the Fragment Analyzer (Advanced Analytical). The amplicon libraries were pooled in equimolar amounts and purified from 1,2% agarose gel using the Gel Extraction Kit (Qiagen). The Library was quantified using the Quant-iT™ PicoGreen® dsDNA Assay Kit (Thermo Fisher Scientific). Paired-end sequencing of amplicons was conducted on the Illumina MiSeq platform (Illumina, Eindhoven, The Netherlands).
The sequence data was processed with Mothur v.1.36.1 [26] in line with the mothur MiSeq SOP [24].

[1] = microbiota + CECT 5940 (first group so headed, r13-r15)
[2] = microbiota + CECT 5940 (second group so headed, r16-r18)

CC(=O)N[C@@H](C)C(=O)N[C@@H](CCC(N)=O)C(=O)O [Ac-Ala-Gln] (Ac-Ala-Gln-OH)
Clostridium_XIVa relative abundance [1]: 1%
Clostridium_XIVa relative abundance [2]: 4%
Clostridium_XIVa relative abundance (microbiota + DSM 32315): 2%
Clostridium_XIVa relative abundance (microbiota, no probiotic cells): 1%

C[C@H](N)C(=O)N[C@@H](CCC(N)=O)C(=O)O [Ala-Gln, Alanine-Glutamine] (H-Ala-Gln-OH)
Clostridium_XIVa relative abundance [1]: 10%
Clostridium_XIVa relative abundance [2]: 6%
Clostridium_XIVa relative abundance (microbiota + DSM 32315): 4%
Clostridium_XIVa relative abundance (microbiota, no probiotic cells): 2%

NC(=O)CC[C@H](N)C(=O)O [Gln, glutamine, reference compound]
Clostridium_XIVa relative abundance [1]: 1%
Clostridium_XIVa relative abundance [2]: 9%
Clostridium_XIVa relative abundance (microbiota + DSM 32315): 2%
Clostridium_XIVa relative abundance (microbiota, no probiotic cells): 1%

N[C@@H](CCC(=O)O)C(=O)O [Glu, glutamic acid, reference compound]
Clostridium_XIVa relative abundance [1]: 1%
Clostridium_XIVa relative abundance [2]: 1%
Clostridium_XIVa relative abundance (microbiota + DSM 32315): 3%
Clostridium_XIVa relative abundance (microbiota, no probiotic cells): 1%

NCC(=O)O.N[C@@H](CCC(=O)O)C(=O)O [Gly-Glu, Glycine-Glutamic acid]
Clostridium_XIVa relative abundance [1]: 9%
Clostridium_XIVa relative abundance [2]: 10%
Clostridium_XIVa relative abundance (microbiota + DSM 32315): 8%
Clostridium_XIVa relative abundance (microbiota, no probiotic cells): 4%
